Results reported in ChEMBL document CHEMBL5316343, “Design, Synthesis, and Biological Evaluation of a Potent Dual EZH2-BRD4 Inhibitor for the Treatment of Some Solid Tumors” (J Med Chem, 2023).
pIC50: −log10 of the molar value. Activity calls are given as the source filed them. The calls are words filed in the database; no cut-off is given here.

Tests used:
[1] = target: T1, Histone-lysine N-methyltransferase EZH2 (Homo sapiens, UniProt Q15910); test: Inhibition of EZH2 (unknown origin) by radiometric assay
Target sequence in this assay (Q15910 whole entry): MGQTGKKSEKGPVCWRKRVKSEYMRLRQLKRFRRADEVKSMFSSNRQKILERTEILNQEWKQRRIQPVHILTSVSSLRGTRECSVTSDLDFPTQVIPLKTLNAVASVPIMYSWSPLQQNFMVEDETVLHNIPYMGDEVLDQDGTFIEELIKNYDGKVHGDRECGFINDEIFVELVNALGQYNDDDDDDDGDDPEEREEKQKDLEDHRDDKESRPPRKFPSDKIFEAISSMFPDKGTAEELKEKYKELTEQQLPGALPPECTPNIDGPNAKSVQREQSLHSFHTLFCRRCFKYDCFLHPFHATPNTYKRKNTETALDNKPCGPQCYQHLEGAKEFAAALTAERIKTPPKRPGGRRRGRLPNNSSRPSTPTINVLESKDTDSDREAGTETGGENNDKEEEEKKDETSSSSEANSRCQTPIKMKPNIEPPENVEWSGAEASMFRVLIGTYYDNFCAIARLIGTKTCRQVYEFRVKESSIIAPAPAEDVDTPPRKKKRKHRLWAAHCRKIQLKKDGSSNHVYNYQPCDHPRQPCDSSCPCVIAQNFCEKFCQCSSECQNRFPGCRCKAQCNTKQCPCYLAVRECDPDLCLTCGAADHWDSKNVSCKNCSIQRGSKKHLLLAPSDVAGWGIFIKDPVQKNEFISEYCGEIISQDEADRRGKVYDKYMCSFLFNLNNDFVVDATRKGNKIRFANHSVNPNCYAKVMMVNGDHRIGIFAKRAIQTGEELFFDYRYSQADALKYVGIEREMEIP

[2] = target: Bromodomain-containing protein 4 (Homo sapiens, UniProt O60885); test: Inhibition of BRD4 (unknown origin) by HTRF analysis
[3] = target: Bromodomain-containing protein 2 (Homo sapiens, UniProt P25440); test: Inhibition of BRD2-BD1/2 (unknown origin) by HTRF analysis
[4] = target: Bromodomain testis-specific protein (Homo sapiens, UniProt Q58F21); test: Inhibition of BRDT-BD1 (unknown origin) by HTRF analysis
[5] = tested on: MDA-MB-231; test: Antiproliferative activity against human MDA-MB-231 cells assessed as inhibition of cell proliferation incubated for 6 days by CCK8 assay; format: functional, cell-based; settings: time 6.0 day
[6] = target: T1, Histone-lysine N-methyltransferase EZH2; test: Inhibition of EZH2 in human MDA-MB-231 cells assessed as decrease in H3K27me3 level at 5 uM by fluorescence based analysis; format: cell-based
Target sequence in this assay (Q15910 whole entry, looked up): as the sequence (Q15910 whole entry) above

[7] = target: T1, Histone-lysine N-methyltransferase EZH2; test: Inhibition of EZH2 in human BX-PC-3 cells assessed as decrease in H3K27me3 level at 5 uM by fluorescence based analysis; format: cell-based; settings: BXPC-3
Target sequence in this assay (Q15910 whole entry, looked up): as the sequence (Q15910 whole entry) above

[8] = target: T1, Histone-lysine N-methyltransferase EZH2; test: Inhibition of EZH2 in human MDA-MB-231 cells assessed as increase in H3K27ac level at 5 uM by fluorescence based analysis; format: cell-based
Target sequence in this assay (Q15910 whole entry, looked up): as the sequence (Q15910 whole entry) above

[9] = tested on: BXPC-3; test: Induction of cell cycle arrest in human BXPC-3 cells assessed as accumulation of cells at G0/G1 phase at 1 to 5 uM incubated for 48 hrs by flow cytometric analysis; format: functional, cell-based; settings: dose 1-5 µM
[10] = tested on: MDA-MB-231; test: Induction of apoptosis in human MDA-MB-231 cells assessed as viable cells at 5 uM incubated for 48 hrs by Annexin V-FITC/PI staining based flow cytometric analysis (reference value: 97.63%); format: functional; settings: read-out: Activity
[11] = tested on: MDA-MB-231; test: Induction of apoptosis in human MDA-MB-231 cells assessed as early apoptotic cells at 5 uM incubated for 48 hrs by Annexin V-FITC/PI staining based flow cytometric analysis (reference value: 0.69%); format: functional
[12] = tested on: MDA-MB-231; test: Induction of apoptosis in human MDA-MB-231 cells assessed as late apoptotic cells at 5 uM incubated for 48 hrs by Annexin V-FITC/PI staining based flow cytometric analysis (reference value: 1.06%); format: functional
[13] = tested on: MDA-MB-231; test: Induction of apoptosis in human MDA-MB-231 cells assessed as early apoptotic cells at 1 uM incubated for 48 hrs by Annexin V-FITC/PI staining based flow cytometric analysis (reference value: 0.69%); format: functional
[14] = tested on: MDA-MB-231; test: Induction of apoptosis in human MDA-MB-231 cells assessed as late apoptotic cells at 1 uM incubated for 48 hrs by Annexin V-FITC/PI staining based flow cytometric analysis (reference value: 1.06%); format: functional
[15] = tested on: MDA-MB-231; test: Induction of apoptosis in human MDA-MB-231 cells assessed as necrotic cells at 1 uM incubated for 48 hrs by Annexin V-FITC/PI staining based flow cytometric analysis (reference value: 0.63%); format: functional
[16] = tested on: MDA-MB-231; test: Induction of apoptosis in human MDA-MB-231 cells assessed as viable cells at 2.5 uM incubated for 48 hrs by Annexin V-FITC/PI staining based flow cytometric analysis (reference value: 97.63%); format: functional; settings: read-out: Activity
[17] = tested on: MDA-MB-231; test: Induction of apoptosis in human MDA-MB-231 cells assessed as early apoptotic cells at 2.5 uM incubated for 48 hrs by Annexin V-FITC/PI staining based flow cytometric analysis (reference value: 0.69%); format: functional
[18] = tested on: MDA-MB-231; test: Induction of apoptosis in human MDA-MB-231 cells assessed as late apoptotic cells at 2.5 uM incubated for 48 hrs by Annexin V-FITC/PI staining based flow cytometric analysis (reference value: 1.06%); format: functional
[19] = tested on: MDA-MB-231; test: Induction of apoptosis in human MDA-MB-231 cells assessed as necrotic cells at 2.5 uM incubated for 48 hrs by Annexin V-FITC/PI staining based flow cytometric analysis (reference value: 0.63%); format: functional
[20] = tested on: BXPC-3; test: Induction of apoptosis in human BXPC-3 cells assessed as early apoptotic cells at 5 uM incubated for 48 hrs by Annexin V-FITC/PI staining based flow cytometric analysis (reference value: 3.28 %); format: functional
[21] = tested on: BXPC-3; test: Induction of apoptosis in human BXPC-3 cells assessed as late apoptotic cells at 5 uM incubated for 48 hrs by Annexin V-FITC/PI staining based flow cytometric analysis (reference value: 4.38 %); format: functional
[22] = tested on: BXPC-3; test: Induction of apoptosis in human BXPC-3 cells assessed as viable cells at 1 uM incubated for 48 hrs by Annexin V-FITC/PI staining based flow cytometric analysis (reference value: 90.70%); format: functional; settings: read-out: Activity
[23] = tested on: BXPC-3; test: Induction of apoptosis in human BXPC-3 cells assessed as late apoptotic cells at 1 uM incubated for 48 hrs by Annexin V-FITC/PI staining based flow cytometric analysis (reference value: 4.38 %); format: functional
[24] = tested on: BXPC-3; test: Induction of apoptosis in human BXPC-3 cells assessed as late apoptotic cells at 2.5 uM incubated for 48 hrs by Annexin V-FITC/PI staining based flow cytometric analysis (reference value: 4.38 %); format: functional
[25] = tested on: BXPC-3; test: Induction of apoptosis in human BXPC-3 cells assessed as necrotic cells at 2.5 uM incubated for 48 hrs by Annexin V-FITC/PI staining based flow cytometric analysis (reference value: 1.65 %); format: functional
[26] = tested on: BXPC-3; test: Inhibition of cell proliferation in human BXPC-3 cells assessed as decrease in c-Myc mRNA level at 5 uM incubated for 48 hrs by qRT-PCR analysis; format: functional, cell-based
[27] = Cmax in ICR mouse at 60 mg/kg, ip measured upto 24 hrs by LC-MS/MS analysis; format: ADME, organism-based; design: time < 24 hrs, dose 60 mg/kg, route ip; settings: in vivo
[28] = AUC(0 to t) in ICR mouse at 60 mg/kg, ip measured upto 24 hrs by LC-MS/MS analysis; format: ADME, organism-based; design: time < 24 hrs, dose 60 mg/kg, route ip; settings: in vivo
[29] = MRT(0 to infinity) in ICR mouse at 60 mg/kg, ip measured upto 24 hrs by LC-MS/MS analysis; format: ADME, organism-based; settings: in vivo
[30] = tested on: BXPC-3; test: Antitumor activity against human BXPC-3 cells xenografted in Balb/c nude mouse assessed as reduction in tumor growth at 60 mg/kg, ip administered daily for 30 days; format: functional, organism-based; settings: time 30.0 day
[31] = tested on: Mus musculus; test: In vivo inhibition of EZH2 in Balb/c nude mouse xenografted with human BXPC-3 cells assessed as reduction in H3K27me3 level in tumor at 60 mg/kg, ip administered daily for 30 days by IHC analysis; format: functional, organism-based; settings: time 30.0 day

Chain of Bromodomain-containing protein 2 (P25440 whole entry): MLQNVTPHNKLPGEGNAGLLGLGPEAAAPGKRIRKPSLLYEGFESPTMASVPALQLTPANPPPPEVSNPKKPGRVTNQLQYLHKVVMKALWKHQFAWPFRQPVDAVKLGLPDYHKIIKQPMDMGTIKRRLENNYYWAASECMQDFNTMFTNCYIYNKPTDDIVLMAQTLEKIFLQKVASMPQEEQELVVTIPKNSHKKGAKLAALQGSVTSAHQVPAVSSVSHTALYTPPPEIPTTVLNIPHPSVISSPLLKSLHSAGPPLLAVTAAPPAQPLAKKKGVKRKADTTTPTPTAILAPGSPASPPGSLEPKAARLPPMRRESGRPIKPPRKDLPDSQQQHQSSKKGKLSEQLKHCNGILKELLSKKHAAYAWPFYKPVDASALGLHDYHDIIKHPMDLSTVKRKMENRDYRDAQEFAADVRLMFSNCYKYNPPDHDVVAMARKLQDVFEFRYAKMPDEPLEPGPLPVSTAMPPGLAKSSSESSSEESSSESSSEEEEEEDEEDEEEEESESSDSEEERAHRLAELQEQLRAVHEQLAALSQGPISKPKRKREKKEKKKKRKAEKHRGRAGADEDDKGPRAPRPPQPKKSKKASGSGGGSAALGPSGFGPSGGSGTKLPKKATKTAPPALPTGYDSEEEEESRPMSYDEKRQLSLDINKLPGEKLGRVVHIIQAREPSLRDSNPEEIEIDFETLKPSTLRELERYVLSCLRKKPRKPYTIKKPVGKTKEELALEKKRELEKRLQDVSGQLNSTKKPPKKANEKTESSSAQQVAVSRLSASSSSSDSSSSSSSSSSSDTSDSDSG

Structure (SMILES): CCC(C)n1ccc2c(C(=O)NCc3c(C)cc(C)[nH]c3=O)cc(-c3cn(C)c(=O)c4[nH]ccc34)cc21 (stereo unspecified)
- pIC50 [1]: 8.64
- pIC50 [2]: 6.83
- pIC50 [3]: 7.51
- pIC50 [4]: 7.46
- Activity [5]: Active
- inhibition [6]: Active
- inhibition [7]: Active
- inhibition [8]: Active
- Activity [9]: Active
- viability at 5 µM [10]: 81.1%
- Activity [11]: 13.19%
- Activity [12]: 3.82%
- Activity [13]: 2.87%
- Activity [14]: 1.36%
- Activity [15]: 0.87%
- viability at 2.5 µM [16]: 87.8%
- Activity [17]: 8.53%
- Activity [18]: 2.29%
- Activity [19]: 1.38%
- Activity [20]: 10.73%
- Activity [21]: 23.83%
- viability at 1 µM [22]: 82.6%
- Activity [23]: 7.61%
- Activity [24]: 16.95%
- Activity [25]: 2.86%
- inhibition [26]: Active
- Cmax [27]: 2960 ng/mL
- AUC(0-t) at 24 h [28]: 1820 ng·h/mL
- MRT inf [29]: 6.94 h
- Activity [30]: Active
- inhibition [31]: Active
